Patent publication US20080242649A1, “New Combination 665” (priority 2007, published 2008)
Like-named read-outs stand apart in the source and are kept apart here.

Key:
[1] = test system: methacholine-induced bronchoconstriction; assay: Lung function in anaesthetized guinea-pigs, methacholine challenge; type: in vivo, Dunkin-Hartley guinea pig
Procedure: (§1) Evaluation of Lung Function in Anaesthetized Guinea-Pigs
(§2) Male Dunkin-Hartley guinea pigs (300-600 g) were weighed and dosed with vehicle (0.05M phosphate, 0.1% Tween 80, 0.6% saline, pH 6) or compound via the intratracheal route under recoverable gaseous anaesthesia (5% halothane in oxygen). Animals were dosed with compound or vehicle two hours prior to the administration of histamine or methacholine.
(§3) Guinea pigs were anaesthetized with pentobarbitone (1 mL/kg of 60 mg/mL solution i.p.) approximately 30 minutes prior to the first bronchoconstrictor administration. The trachea was cannulated and the animal ventilated using a constant volume respiratory pump (Harvard Rodent Ventilator model 683) at a rate of 60 breath/min and a tidal volume of 5 ml/kg. A jugular vein was cannulated for the administration of histamine, methacholine or maintenance anaesthetic (0.1 mL of pentobarbitone solution, 60 mg/mL, as required).
(§4) The animals were transferred to a Flexivent System (SCIREQ, Montreal, Canada) in order to measure airway resistance. The animals were ventilated (quasi-sinusoidal ventilation pattern) at 60 breaths/min at a tidal volume of 5 mL/kg. A positive end expiratory pressure of 2-3 cmH2O was applied. Respiratory resistance was measured using the Flexivent “snapshot” facility (1 second duration, 1 Hz frequency). Once stable baseline resistance value had been obtained the animals were given histamine or methacholine in ascending doses (0.5, 1, 2, 3 and 5 μg/kg, i.v.) at approximately 4-minute intervals via the jugular catheter. After each administration of bronchoconstrictor the peak resistance value was recorded. Guinea pigs were euthanized with approximately 1.0 mL pentobarbitone sodium (Euthatal) intravenously after the completion of the lung function measurements. Percentage bronchoprotection produced by a compound was calculated at each dose of brochoconstrictor as follows:
(§5) Where % change Rveh is the mean of the maximum percentage change in airway resistance in the vehicle treated group. The results reported were measured after 5 μg/kg histamine or methacholine and were expressed as percentage bronchoprotection (mean ±s.e.mean).

[2] = test system: LPS-induced intra-alveolar neutrophilia; assay: Intra-alveolar neutrophil migration after intratracheal LPS challenge in the CRL:CD rat; type: in vivo
Procedure: Evaluation of Compound Activity on Intra-Alveolar Neutrophil Migration after Intratracheal Challenge with Lipopolysacharride (LPS) in the CRL:CD Rat
LPS challenge in CRL:CD rats causes an influx of neutrophils into the lungs. Under recoverable gaseous anaesthesia (5% isoflorane in oxygen), rats were dosed via the intratracheal route with vehicle (0.05M phosphate, 0.1% Tween 80, 0.6% saline, pH 6), or compound 30 min before challenge with an intratracheal dose of 10 μg/kg LPS.
The rats (250-400 g) were euthanized 4 hr after LPS challenge with 1 mL pentobarbitone sodium. A tracheotomy was performed and a cannula inserted. The airway was then lavaged using 3 mL Isoton at room temperature. The Isoton (BeckmanCoulter, High Wycombe, UK) was left in the airway for 10 seconds before being removed. The bronchio-alveolar lavage (BAL) fluid containing inflammatory cells was placed into a 15 mL centrifuge tube and kept on ice. This process was repeated three times. An aliquot of BAL fluid was removed and the inflammatory cells were counted on Sysmex (Sysmex UK, Milton Keynes). Neutrophils were expressed in millions/animal (mean ±s.e.mean).

[3] = test system: LPS-induced TNFα production; assay: Inhibition of LPS-induced TNFα production in human PBMCs; type: cell-based; conditions: for inhibition at 0.03 µM: Homo sapiens, PBMC
Procedure: Inhibition of Lipopolysacchamide (LPS)-Induced TNFα Production in Human Peripheral Blood Mononuclear Cells
The cells were then incubated with LPS (1 μg/mL) for 4 hours at 37° C. to induce TNFα production. At the end of the incubation period, the plates were centrifuged (300 g, 10 minutes) and 100 μL of the culture supernatant was analysed to quantify the TNFα released using a Fluorescence-linked immunosorbance assay (FLISA) assay kit (R&D Systems). Fluorescence levels were read on an FMAT plate reader. Inhibition curves were fitted using a 4-parameter logistic equation in a non-linear curve fitting routine and activity was expressed as pIC50 (mean ±s.e.mean).

[4] = test system: histamine-induced bronchoconstriction; assay: Lung function in anaesthetized guinea-pigs, histamine challenge; type: in vivo, Dunkin-Hartley guinea pig
Procedure: as §1, §2, §3, §4, §5

[5] = test system: guinea pig trachea; assay: Bronchodilator onset in guinea pig isolated tracheal ring contracted with methacholine; conditions: roflumilast 1 μM alone
Procedure: Evaluation of Bronchodilator Activity in the Guinea Pig Isolated Tracheal Ring Preparation
Guinea pigs (300-500 g) were killed by cervical dislocation and the trachea was isolated. The trachea was cut into segments 2-3 cartilage rings in width and suspended in 10 ml organ baths in modified Krebs' solution (mM; NaCl, 90; NaHCO3, 45; KCl, 5; MgSO4.7H2O, 0.5; Na2HPO4.2H2O, 1; CaCl2, 2.25; glucose, 10; pH 7.4) gassed with 5% CO2, 95% […] at 37° C.). The tracheal rings were attached to an isometric force transducer for the measurement of isometric tension. The tissues were washed and a force of 1 g was applied to each tissue. The rings were contracted with methacholine (1 μM). Once the contraction had reached a plateau, vehicle (0.01% DMSO in distilled H2O), compound A (3 nM), roflumilast (1 μM) or a combination of compound A (3 nM) and roflumilast (1 μM) was added and the tissue left until the response had reached a plateau. Data were collected using the Chart 4 software (ADInstruments, Charlgrove, UK). The time to 90% of the maximum effect of the bronchodilator (onset time) was measured and expressed in min (mean ±s.e.mean).

In the case of C[N+]1(C)[C@@H]2C[C@@H](OC(=O)C(O)(c3cccs3)c3cccs3)C[C@H]1[C@@H]1O[C@@H]12 [tiotropium bromide, reference compound], the increase in resistance ([1]; tiotropium bromide 0.03 pg/kg intratracheal, methacholine 5 μg/kg, vehicle 1898±211%) is reported as 1656±269% and the “inhibition of methacholine-induced bronchoconstriction” value ([1]; tiotropium bromide intratracheal 2 h before, methacholine 5 μg/kg i.v.) is reported as 13%.

In the case of CNC(=O)c1cc(Cl)c(OC(C)(C)C(=O)O)cc1OC[C@@H](O)CN1CCC2(CC1)Cc1cc(Cl)ccc1O2 [Compound W, 2-{2-Chloro-5-{[(2S)-3-(5-chloro-1′H,3H-spiro[1-benzofuran-2,4′-piperidin]-1′-yl)-2-hydroxypropyl]oxy}-4-[(methylamino)carbonyl]phenoxy}-2-methylpropanoic acid], the inhibition of neutrophilia ([2]; Compound W 3 ng/kg intratracheal) is reported as 56% and the “neutrophils in BAL” value ([2]; Compound W 3 ng/kg, vehicle/LPS 11±1.8) is reported as 6.3±1.1 million/animal.

With CC(=O)Nc1ccc(O)cc1OC[C@@](C)(O)CNC1CCN(Cc2ccc(Cl)cc2)CC1 [Compound X, N-{2-[((2S)-3-{[1-(4-chlorobenzyl)piperidin-4-yl]amino}-2-hydroxy-2-methylpropyl)oxy]-4-hydroxyphenyl}acetamide] the inhibition of neutrophilia ([2]; Compound X 30 μg/kg intratracheal) was 30% and the “neutrophils in BAL” value ([2]; Compound X 30 μg/kg, vehicle/LPS 12±1.7) was 8.5±0.75 million/animal.

For CCCC1O[C@@H]2C[C@H]3[C@@H]4CCC5=CC(=O)C=C[C@]5(C)[C@H]4[C@@H](O)C[C@]3(C)[C@]2(C(=O)CO)O1 (some centres unmarked) [Budesonide, reference compound], the inhibition of neutrophilia ([2]; budesonide 0.1 μg/kg intratracheal 30 min prior to LPS) was 51% and the “neutrophils in BAL” value ([2]; budesonide 0.1 μg/kg intratracheal, vehicle/LPS 14±1.6) was 7.1±0.77 million/animal.

O=C(Nc1c(Cl)cncc1Cl)c1ccc(OC(F)F)c(OCC2CC2)c1 [Roflumilast, 3-(cyclopropylmethoxy)-N-(3,5-dichloro-4-pyridinyl)-4-(difluoromethoxy)benzamide, reference compound] was tested, and the inhibition at 0.03 µM ([3]; roflumilast 30 nM alone, PBMCs, LPS 1 μg/mL, read-out: inhibition of LPS-induced TNFα production) was 70 ± 4.1%, the inhibition at 0.03 µM ([3]; roflumilast 30 nM in the presence of 30 nM compound A, read-out: maximum inhibition of TNFα production) was 92 ± 0.4% and the “maximum inhibition of TNFα production” value ([3]; roflumilast 30 nM in the presence of 3 nM compound A) was 82±2.3%. For the same compound, the “inhibition of histamine-induced bronchoconstriction” value ([4]; roflumilast 1 mg/kg intratracheal 2 h before, histamine 5 μg/kg i.v.) was 35%, the increase in bronchoconstriction ([4]; roflumilast 1 mg/kg intratracheal, histamine 5 μg/kg, vehicle 1100±161%) was 695±177% and the “onset time (time to 90% of the maximum effect)” value [5] was 26 ± 1.4 min.
